Like-named read-outs stand apart in the source and are kept apart here.
Legend:
[1] = tested on: tumor models (cell lines); test: Humanized 3D tumor growth assay (3D-TGA), tumor model panel / other cell lines; type: cell-based, human; conditions: Homo sapiens, agent alone
From the text: The humanized 3D tumor growth assay (3D-TGA) is an extracellular matrix (ECM)-based, 3D tumor model that more faithfully mimics the human tumor microenvironment (TME) with the goal of improving translational fidelity to patients. See Casneuf T, et al., “Interleukin-6 is a potential therapeutic target in interleukin-6 dependent, estrogen receptor-α-positive breast cancer,” Breast Cancer (Dove Med Press). […] MEK inhibition in the 3D-TGA. […]
All cell lines were validated by IDEXX upon receipt and assay setup. See Appendix for full cell line list.
(§1) Cells were seeded in 3D cultures in a black-walled, clear-bottom, non-tissue culture treated, 384-well plate (3000 cells per well) using a 1:1 mixture of BME and a custom media and grown in a humidified incubator with 5% CO2 and 5% O2, which approximates capillary levels for each gas, at 37° C. […] Cells were assessed for cell proliferation using EdU cell proliferation staining. […] Cells were permeabilized with 30 μL of filtered 0.5% Triton X-100 in PBS for 20 minutes at room temperature. Samples were washed twice gently with PBS. Cells were stained utilizing click-iT chemistry by adding 20 μL of staining cocktail containing 2 mM copper sulfate, 8 μM sulfo-Cy5-azide, and 20 mg/ml ascorbic acid in PBS and incubated 30-60 minutes at room temperature in dark. […] Plates were imaged with the Molecular Devices Pico ImageXpress. Images were segmented and percentage of cells with EdU incorporation was quantified to calculate antiproliferative effects of the drugs.
(§2) Five (5)-ethynyl-2′-deoxyuridine (EdU) data was represented as percentage EdU positive cells quantified by high content imaging from the Molecular Devices ImageXpress® Pico.

[2] = tested on: NCI-H1792 cells; test: 3D-TGA; type: cell-based, human; conditions: Homo sapiens, NCI-H1792, LUN, KRAS G12C
[3] = tested on: A549 cells; test: 3D-TGA; type: cell-based, human; conditions: Homo sapiens; A549, LUN, KRAS G12S; agent alone; read-out: IC50 in 3D-TGA Talazoparib
Procedure: as §1, §2

[4] = tested on: CORL23 cells; test: 3D-TGA; type: cell-based; conditions: Homo sapiens, COR-L23, CORL23, LUN, KRAS G12V, ALK R317T, agent alone
Procedure: as §1, §2

[5] = tested on: NCI-H2087 cells; test: 3D-TGA; type: cell-based; conditions: Homo sapiens, NCI-H2087, LUN, NRAS Q61K, ALK S553A, agent alone
Procedure: as §1, §2

[6] = tested on: SNU-1197 cells; test: 3D-TGA; type: cell-based, human; conditions: Homo sapiens, read-out: IC50 in 3D-TGA, agent alone
Procedure: as §1, §2

[7] = tested on: LS1034 cells; test: 3D-TGA; type: cell-based, human; conditions: Homo sapiens, LS-1034; LS1034, COL, KRAS A146T; read-out: IC50 in 3D-TGA, agent alone
Procedure: as §1, §2

[8] = tested on: SW626 cells; test: 3D-TGA; type: cell-based, human; conditions: Homo sapiens, SW626, read-out: IC50 in 3D-TGA, agent alone
Procedure: as §1, §2

[9] = tested on: RCM-1 cells; test: 3D-TGA; type: cell-based, human; conditions: Homo sapiens, RCM-1, read-out: IC50 in 3D-TGA, agent alone
Procedure: as §1, §2

[10] = tested on: HT-29 cells; test: 3D-TGA; type: cell-based, human; conditions: Homo sapiens, HT-29, read-out: IC50 in 3D-TGA, agent alone
Procedure: as §1, §2

[11] = tested on: CL-40 cells; test: 3D-TGA; type: cell-based, human; conditions: Homo sapiens, read-out: IC50 in 3D-TGA, agent alone
Procedure: as §1, §2

[12] = tested on: PANC-1 cells; test: 3D-TGA; type: cell-based, human; conditions: Homo sapiens; PANC-1, PAN, KRAS G12D; read-out: IC50 in 3D-TGA, agent alone
Procedure: as §1, §2

[13] = tested on: NCI-H358 cells; test: 3D-TGA; type: cell-based, human; conditions: Homo sapiens; NCI-H358, LUN, KRAS G12C; read-out: IC50 in 3D-TGA, KRAS G12C inhibitor alone
[14] = tested on: HCC-44 cells; test: 3D-TGA; type: cell-based, human; conditions: Homo sapiens, HCC44, read-out: IC50 in 3D-TGA, KRAS G12C inhibitor alone
Procedure: as §1, §2

[15] = tested on: NCI-H2122 cells; test: 3D-TGA; type: cell-based, human; conditions: Homo sapiens, NCI-H2122, read-out: IC50 in 3D-TGA, KRAS G12C inhibitor alone
Procedure: as §1, §2

[16] = tested on: NCI-H2030 cells; test: 3D-TGA; type: cell-based, human; conditions: Homo sapiens, NCI-H2030, read-out: IC50 in 3D-TGA, KRAS G12C inhibitor alone
Procedure: as §1, §2

[17] = tested on: LU99 cells; test: 3D-TGA; type: cell-based, human; conditions: Homo sapiens, Lu-99, read-out: IC50 in 3D-TGA, KRAS G12C inhibitor alone
Procedure: as §1, §2

[18] = tested on: MIA PaCa-2 (KRAS G12C) pancreatic xenograft; test: MIA PaCa-2 pancreatic xenograft tumor model; type: in vivo, athymic nude mice; conditions: MIA PaCa-2 KRAS G12C xenograft, 21 days
From the text: Gemcitabine (antimetabolite), nab-paclitaxel (taxane) and fluorouracil (5-FU; antimetabolite) were commercially purchased. All studies started with 12 animals, per group. Mice within specific groups randomized for cross-over of treatments (≥day 42). […] Additive models: MIA PaCa-2, PA-TU-8988S, CFPAC-1, HPAF-II, Panc 03.27, PSN-1, Panc 10.05, Capan-1, HPAC, PANC-1.

[19] = read-out: IC50 in 3D-TGA Brigatinib
[20] = read-out: IC50 in 3D-TGA, KRAS G12C inhibitor alone
[21] = read-out: IC50 in 3D-TGA Lorlatinib

Cn1ncnc1[C@H]1c2n[nH]c(=O)c3cc(F)cc(c23)N[C@@H]1c1ccc(F)cc1 [Talazoparib, talazoparib]
IC50 ([1]; HL-60, HL-60, AML, NRAS Q61L, read-out: IC50 in 3D-TGA Talazoparib): > 1000 nM
IC50 ([1]; NCI-H1734, NCI-H1734, LUN, KRAS G13C, read-out: IC50 in 3D-TGA Talazoparib): > 1000 nM
IC50 ([1]; THP-1, THP-1, AML, NRAS G12D, read-out: IC50 in 3D-TGA Talazoparib): > 1000 nM
IC50 ([2]; agent alone, read-out: IC50 in 3D-TGA Talazoparib): 500 to 1000 nM
IC50 [3]: > 1000 nM

COc1cc(N2CCC(N3CCN(C)CC3)CC2)ccc1Nc1ncc(Cl)c(Nc2ccccc2P(C)(C)=O)n1 [Brigatinib, brigatinib]
IC50 [4, 19]: 1000 nM
IC50 [5, 19]: 1000 nM

CC(C)C[C@H](NC(=O)[C@H](Cc1ccccc1)NC(=O)c1cnccn1)B(O)O [Bortezomib, bortezomib]
IC50 ([1]; KHM-1B, MM, NRAS G12C/KRAS G12C, read-out: IC50 in 3D-TGA Bortezomib): 500 to 1000 nM
IC50 ([1]; L-363, L-363, MM, NRAS Q61H, read-out: IC50 in 3D-TGA Bortezomib): 1000 nM
IC50 ([1]; MM1.S, MM.1S, MM, KRAS G12A, read-out: IC50 in 3D-TGA Bortezomib): 50 to 100 nM
IC50 ([1]; RPMI-8226, RPMI-8226, MM, KRAS G12A, read-out: IC50 in 3D-TGA Bortezomib): 100 to 500 nM

COc1cccc2c1C(=O)c1c(O)c3c(c(O)c1C2=O)C[C@@](O)(C(C)=O)C[C@@H]3O[C@H]1C[C@H](N)[C@H](O)[C@H](C)O1 [Daunorubicin, daunorubicin]
IC50 ([1]; HL-60, HL-60, AML, NRAS Q61L, read-out: IC50 in 3D-TGA Daunorubicin): 67.6 nM
IC50 ([1]; NB4, AML, KRAS Amp, read-out: IC50 in 3D-TGA Daunorubicin): 63.2 nM
IC50 ([1]; OCI-AML-3, OCI-AML3, AML, NRAS Q61L, read-out: IC50 in 3D-TGA Daunorubicin): 28 nM
IC50 ([1]; PL-21, PL-21, AML, KRAS A146V, read-out: IC50 in 3D-TGA Daunorubicin): 64.1 nM
IC50 ([1]; TF-1, AML, NRAS Q61P, read-out: IC50 in 3D-TGA Daunorubicin): 56.2 nM
IC50 ([1]; THP-1, THP-1, AML, NRAS G12D, read-out: IC50 in 3D-TGA Daunorubicin): 119 nM

CC(=O)O[C@H]1C(=O)[C@@]2(C)[C@H]([C@H](OC(=O)c3ccccc3)[C@]3(O)C[C@H](OC(=O)[C@H](O)[C@@H](NC(=O)c4ccccc4)c4ccccc4)C(C)=C1C3(C)C)[C@]1(OC(C)=O)CO[C@@H]1C[C@@H]2O [Paclitaxel, paclitaxel]
IC50 [6]: 100 to 500 nM
IC50 [7]: 1000 nM
IC50 [8]: < 50 nM
IC50 [9]: 100 to 500 nM
IC50 [10]: < 50 nM
IC50 [11]: < 50 nM
IC50 [12]: 1000 nM

C=C(F)C(=O)N1CCN(c2nc(OC[C@@H]3CCCN3C)nc3c2CCN(c2cccc4cccc(Cl)c24)C3)C[C@@H]1CC#N [adagrasib]
IC50 [13]: 50 to 100 nM
IC50 [2, 20]: > 1000 nM
IC50 [14]: > 1000 nM
IC50 [15]: > 1000 nM
IC50 [16]: < 50 nM
IC50 [17]: > 1000 nM

C[C@H]1Oc2cc(cnc2N)-c2c(nn(C)c2C#N)CN(C)C(=O)c2ccc(F)cc21 [Lorlatinib]
IC50 [4, 21]: 1000 nM
IC50 [5, 21]: 1000 nM

Nc1ncn([C@@H]2O[C@H](CO)[C@@H](O)[C@H]2O)c(=O)n1 [Azacitidine, azacitidine]
IC50 ([1]; HL-60, HL-60, AML, NRAS Q61L, read-out: IC50 in 3D-TGA Azacitidine): 1000 nM
IC50 ([1]; KHM-1B, MM, NRAS G12C/KRAS G12C, read-out: IC50 in 3D-TGA Azacitidine): 100 to 500 nM
IC50 ([1]; NB4, AML, KRAS Amp, read-out: IC50 in 3D-TGA Azacitidine): 1000 nM
IC50 ([1]; OCI-AML-3, OCI-AML3, AML, NRAS Q61L, read-out: IC50 in 3D-TGA Azacitidine): 1000 nM
IC50 ([1]; PL-21, PL-21, AML, KRAS A146V, read-out: IC50 in 3D-TGA Azacitidine): 500 to 1000 nM
IC50 ([1]; TF-1, AML, NRAS Q61P, read-out: IC50 in 3D-TGA Azacitidine): 1000 nM
IC50 ([1]; THP-1, THP-1, AML, NRAS G12D, read-out: IC50 in 3D-TGA Azacitidine): 1000 nM

C=CC(=O)N1CCN(c2nc(=O)n(-c3c(C)ccnc3C(C)C)c3nc(-c4c(O)cccc4F)c(F)cc23)[C@@H](C)C1 [sotorasib]
BWL [18]: insignificant BWL
IC50 [13]: 100 to 500 nM
IC50 [2, 20]: > 1000 nM
IC50 [14]: > 1000 nM
IC50 [15]: > 1000 nM
IC50 [16]: < 50 nM
IC50 [17]: > 1000 nM

Nc1ncn([C@H]2C[C@H](O)[C@@H](CO)O2)c(=O)n1 [Decitabine, decitabine]
IC50 ([1]; HL-60, HL-60, AML, NRAS Q61L, read-out: IC50 in 3D-TGA Decitabine): 1000 nM
IC50 ([1]; NB4, AML, KRAS Amp, read-out: IC50 in 3D-TGA Decitabine): 1000 nM
IC50 ([1]; OCI-AML-3, OCI-AML3, AML, NRAS Q61L, read-out: IC50 in 3D-TGA Decitabine): 1000 nM
IC50 ([1]; PL-21, PL-21, AML, KRAS A146V, read-out: IC50 in 3D-TGA Decitabine): 1000 nM
IC50 ([1]; TF-1, AML, NRAS Q61P, read-out: IC50 in 3D-TGA Decitabine): 50 nM
IC50 ([1]; THP-1, THP-1, AML, NRAS G12D, read-out: IC50 in 3D-TGA Decitabine): 1000 nM

Source: patent US20260284005A1, “INHIBITING MITOGEN-ACTIVATED PROTEIN (MAP)/ERK KINASE (MEK)1 AND MEK2 AND RELATED METHODS OF TREATMENT” (priority 2023, published 2026)
